Assay results as given in patent publication US10905703B2, “Preparation of a composition containing stilbene glycoside” (priority 2015, dated 2021).

How the values were obtained:
female KK CgAy/J mice = test: Anti-diabetic effect of stilbene glycoside in female KK CgAy/J mice incl. glucose and insulin tolerance tests; assay type: in vivo; conditions: for blood / serum glucose level vs diabetic control: stilbene glycoside 0.075% in drinking water, metformin 300 mg/kg; for insulin tolerance test: level of glucose: 30 minutes after insulin injection
Description: Female KK CgAy/J mice were also utilized in this experiment and handled with the same protocol as in 1.2.3. The mice were divided into four groups with 10 each, and fed with Western HFD. […] Body weight, food and water uptake of the mice were taken on a regular basis. After 12 weeks, all the experimental mice were sacrificed. Similar measurements were taken to the previous experiment with PM extract. Before sacrifice, all the experimental mice were subjected to glucose and insulin tolerance tests. For glucose tolerance test, mice were fasted overnight and injected with glucose solution at 1 g/10 ml and 10 ml/kg body weight. The change in blood glucose level was monitored during the following two hours. For insulin tolerance test, mice were fasted for 5 hours and injected with insulin solution at 1 u/ml and 10 ml/kg body weight. The change in blood glucose level was monitored during the following two hours.

[1] = rats, cited from earlier work
[2] = cited from earlier work
[3] = compared with resveratrol; cited from earlier work
male CF-1 mice = test: Animal study with pure trans- and cis-stilbene glycoside in high fat diet induced male CF-1 mice; assay type: in vivo; conditions: for GTT: rise in blood glucose level / effect on glucose intolerance / serum insulin levels / serum glucose level: 0.01% in drinking water; for GTT: rise in blood glucose level / effect on glucose intolerance / serum insulin levels: HFD 12 weeks; for GTT: rise in blood glucose level / effect on glucose intolerance: intraperitoneal glucose; for serum insulin levels: vs HF group; for serum glucose level: HFD for 12 weeks, FIG. 12
Description: Male CF-1 mice were selected as the model for type 2 diabetes. The mice were kept on Western HFD for 12 weeks and were divided into five groups with 10 each. Group I: Normal control which had free access to drinking water and normal Chow; Group II: Diabetic control which had free access to drinking water and Western HFD; Group III: Treatment group which had free access to drinking water with 0.01% of pure trans-stilbene glycoside and HFD; Group IV: Treatment group which had free access to drinking water with 0.01% of pure cis-stilbene glycoside and Western HFD. Group V: […] Body weight, food and water uptake of the mice were taken on a regular basis. After 12 weeks, all the experimental mice were sacrificed. Body weight, blood glucose and blood insulin levels were evaluated as described before. Glucose tolerance test was also carried out at the end of the study.

[4] = system: phosphoenolpyruvate carboxykinase (PEPCK) mRNA expression; test: PEPCK assay (qPCR of Dex-cAMP induced PEPCK mRNA) in HepG2 cells; assay type: cell-based; conditions: for concentration dependence of PEPCK suppression: 30 μM vs 100 μM; for reduction of PEPCK mRNA compared to Dex/cAMP group: comparative Ct method; for suppression of Dex/cAMP-induced up-regulation of PEPCK transcription: normalized with β-actin, FIG. 13A
Description: The HepG2 cells were plated in 24-well tissue culture plates and were grown to near confluence in Dulbecco's modified Eagle's medium containing 2.5% (vol/vol) newborn calf serum and 2.5% (vol/vol) fetal calf serum. […]
Total RNA was extracted from HepG2 cells using Trizol reagent, following the manufacturer's instructions. RNA was quantified spectrophotometrically by absorbance measurements at 260 and 280 nm. Quality of RNA was assessed by separation in gel electrophoresis. RNA was then treated with Dnasel (Invitrogen), following the manufacturer's guidelines, to remove any traces of DNA contamination. The cDNAs were synthesized with […] of RNA for each sample, using Stratascript reverse transcriptase (Stratagene, La Jolla, Calif.), following the manufacturer's protocol. The synthesized cDNAs were diluted fourfold. Five microliters of each of these diluted samples was used for PCR reactions of 25 ηL final volume. The other components of the PCR reactions were 0.5 ηL of 6 ηM gene-specific primers and 12.5 ηL of Brilliant SYBR Green PCR master mix (containing green jump-start Taq ready mix). ROX (Stratagene, La Jolla, Calif.) was used as a reference dye. The primers were selected using the Primer Express version 2.0 software (Applied Biosystems, Foster City, Calif.). These primers generated a 76-bp product from β-actin mRNA. The intron-spanning forward primer was selected to cover the exon 9-10 boundary. The reverse primer was selected from exon 10. The oligos were synthesized by IDT. These primers generated a 74-bp product from PEPCK mRNA and a 207-bp product from genomic DNA.
Quantitative PCR (qPCR) amplifications were performed on an MX3000p system (Stratagene, La Jolla, Calif.) using one cycle at 50° C. for 2 min and one cycle of 95° C. for 10 min, followed by 40 cycles of 15 s at 95° C. and 1 min at 60° C. The dissociation curve was completed with one cycle of 1 min at 95° C., 30 s at 55° C., and 30 s at 95° C. Non-RT control and no-template control were included in each experiment as quality control steps.
PEPCK mRNA expressions were analyzed using the ΔΔCT method and normalized with respect to the expression of the β-actin house keeping gene. The ΔΔCT Values obtained from these methods reflect the relative mRNA quantities for a specific gene in response to a treatment as relative to a calibrator. The Dex-cAMP treatment (positive control) served as the calibrator sample in this study. The PECPK gene expression of the calibrator sample was assigned to a value of 1.0. A value of <1.0 indicates transcriptional down-regulation (inhibition of gene expression) relative to the calibrator. Amplification of specific transcripts was further confirmed by obtaining melting curve profiles. All samples were run in duplicate.

female KK mice = test: Animal study with trans- and cis-stilbene glycoside extracts in HFD-induced female KK mice; assay type: in vivo; conditions: 18 weeks HFD, solutions in drinking water
Description: Female KK mice were purchased from Jackson labs (Barr Harbor, Me.) and were housed in stainless steel wire-bottomed cages and acclimatized under laboratory conditions (19-23° C., humidity 60%, 12 h light/dark cycle). Normal control mice (n=10) were fed with control diet which was normal Chow 5001 from LabDiet (St. Louis, Mo.) and was composed of 28.5 kcal % protein, 58 kcal % carbohydrate and 13.5 kcal % fat. Diabetic control mice (n=10) were induced with HFD (Research Diets, New Brunswick, N.J.) composed of 20 kcal % protein, 20 kcal % carbohydrate, and 60 kcal % fat (from butter) for 18 weeks. Three solutions were administered to mice (n=10 each) on HFD ad libitum and the compositions are shown below. Solution 1: pure trans-stilbene glycoside (0.05% in drinking water), HPLC chromatogram in FIG. 3.2 (A); Solution 2: 60% ethanol extract of PM root powders, obtained according to procedure in Section 1.2.1 (proportion of cis-stilbene glycoside to trans-stilbene glycoside is approximately 1:20, 0.075% in drinking water), HPLC chromatogram in FIG. 3.2 (B); Solutions 3: obtained from exposing solution 2 under UV-light overnight (proportion of cis-stilbene glycoside to trans-stilbene glycoside is approximately 2:3, 0.075% in drinking water), HPLC chromatogram in FIG. 3.2 (C). After 18 weeks, body weight and blood glucose of all mice were measured.

Compound: CN(C)C(=N)N=C(N)N [metformin, reference compound]
- blood / serum glucose level vs diabetic control (female KK CgAy/J mice; 12 weeks HFD, FIG. 6): effectively brought down
- insulin tolerance test: level of glucose (female KK CgAy/J mice; FIG. 7B): higher level of glucose
- insulin tolerance test: blood glucose (female KK CgAy/J mice; two hours after insulin injection, FIG. 7B): dropped to a lower level than that of stilbene glycoside group

Compound: OC[C@H]1O[C@@H](Oc2c(O)cc(O)cc2/C=C/c2ccc(O)cc2)[C@H](O)[C@@H](O)[C@@H]1O [stilbene glycoside, 2,3,5,4-tetrahydroxystilbene 2-O-β-glucopyranoside]
- serum insulin level vs diabetic control (female KK CgAy/J mice; 12 weeks HFD, 0.075% in drinking water, FIG. 6): elevated
- blood / serum glucose level vs diabetic control (female KK CgAy/J mice; 12 weeks HFD, FIG. 6): elevated
- glucose tolerance test: blood glucose level (female KK CgAy/J mice; 30 minutes after glucose injection (1 g/kg), FIG. 7A): the most elevated
- insulin tolerance test: level of glucose (female KK CgAy/J mice; FIG. 7B): higher level of glucose
- glucose tolerance test: blood glucose (female KK CgAy/J mice; at the end of the test (two hours), FIG. 7A): remained much higher than normal control and metformin groups
- glucose tolerance (female KK CgAy/J mice; overall finding of glucose tolerance test): glucose intolerant
- time of distribution ([1]; single intravenous or oral administration): ≤ 30 min
- Total recovery of unchanged stilbene glycoside in bile ([1]; within 24 hr): 0.041%
- Total recovery of unchanged stilbene glycoside in feces ([1]; within 24 hr): 0.06%
- amount of unchanged stilbene glycoside excreted in the urine ([1]; within 24 hr): lower than Lower Limit of Quantification (LLOQ)
- Absolute bioavailability [1]: 40%
- form of excretion ([1]; metabolites including monoglucuronide and the deglycosidated form): excreted mainly in the forms of metabolites
- solubility [2]: soluble in water, methanol and ethanol
- antioxidant activity [3]: higher antioxidant activity than resveratrol

Compound: OC[C@H]1O[C@@H](Oc2c(O)cc(O)cc2/C=C/c2ccc(O)cc2)[C@H](O)[C@@H](O)[C@@H]1O [cis-stilbene glycoside, 2,3,5,4-tetrahydroxystilbene 2-O-β-glucopyranoside]
- GTT: rise in blood glucose level / effect on glucose intolerance (male CF-1 mice): greatly suppressed
- serum insulin levels (male CF-1 mice): significantly lowered
- serum glucose level (male CF-1 mice): significantly decrease
- Calculated HOMA-IR lower than that in trans-stilbene glycoside group (male CF-1 mice; cis group relative to trans group): 102.7%
- concentration dependence of PEPCK suppression [4]: suppressed more efficiently at 30 μM than at 100 μM
- reduction of PEPCK mRNA compared to Dex/cAMP group ([4]; 30 μM): 61.7%
- suppression of Dex/cAMP-induced up-regulation of PEPCK transcription [4]: effectively suppress

Compound: OC[C@H]1O[C@@H](Oc2c(O)cc(O)cc2/C=C/c2ccc(O)cc2)[C@H](O)[C@@H](O)[C@@H]1O [trans-stilbene glycoside, 2,3,5,4-tetrahydroxystilbene 2-O-β-glucopyranoside]
- high fat induced body weight gain compared to diabetic control (female KK mice): none of the three solutions significantly decreased
- GTT: rise in blood glucose level / effect on glucose intolerance (male CF-1 mice): absent
- serum insulin levels (male CF-1 mice): significantly lowered
- serum glucose level (male CF-1 mice): significantly decrease
- concentration dependence of PEPCK suppression [4]: higher concentration resulted in lower level of PEPCK transcription
- reduction of PEPCK mRNA compared to Dex/cAMP group ([4]; 100 μM): 53.3%
- suppression of Dex/cAMP-induced up-regulation of PEPCK transcription [4]: effectively suppress

Compound: Cn1c(=O)c2c(ncn2C)n(C)c1=O [caffeine, reference compound]
- serum glucose level (male CF-1 mice): significantly decrease
